Experiments:
[1] = test system: mice with traumatic brain injury (TBI); test: Remyelination in corpus callosum of mice with TBI (PLP/A2B5 double-labeling); format: in vivo, mouse; details: 50 mg/kg body weight/day oral gavage
Experimental: FIG. 4 are images of the corpus collosum in mice showing the levels of proteolipid protein (PLP) and A2B5, a marker of oligodendroglial progenitor cells (OPC), in the experimental conditions after 21 days. Oral administration of sodium benzoate (NaB), but not sodium formate (NaFO), stimulates remyelination in mice with traumatic brain injury (TBI). Mice (n=6 per group) were induced moderate TBI by controlled cortical impact (CCI). Starting from 2 hours after TBI, mice were treated with NaB and NaFO (50 mg/kg body weight/day; mixed with water) orally via gavage. After 21 d of treatment, brain sections were double-labeled for PLP and A2B5.
Proteolipid protein (PLP) is a marker of oligodendrocytes and A2B5 is a marker of oligodendroglial progenitor cells (OPC). After 21 days of treatment, brain sections were double-labeled with antibodies against PLP and A2B5.

CCI-induced TBI mice [2] = test: Lesion volume in CCI-induced mice (Cavalieri stereology); format: in vivo, mouse
Experimental: FIG. 5C is a plot showing lesion size in the experimental conditions. Lesion size was quantitatively measured in control mice, untreated CCI injured mice, NaB treated CCI-mice and NaFO-treated CCI-mice at 21 days post-injury. Statistical analyses were performed with Student's t-test in the injured side of the brain [^ap<0.001 (5.623×10^−7) vs control; ^bp<0.001 (=0.001) vs CCI injury].
FIGS. 10A-10C. Decrease in lesion volume in TBI mice by GTB treatment. […] FIG. 10A. […] FIG. 10C. Lesion volume was quantified in all groups of mice. Statistical analyses were performed with two way ANOVA and expressed as mean±SD to compare the lesion volume between unlesioned and lesioned side of the brain.
The estimation of lesion volume was performed based on the Cavalieri method of unbiased stereology using the StereoInvestigator software (MicroBright Biosciences, USA). Both the ipsilateral and contralateral hemisphere of brain volumes were determined using the Cavalieri estimator with a 1 mm grid spacing 1 mm. Every fourth section was analyzed beginning from a random start point. Lesion volume was estimated by subtracting the volume of the ipsilateral hemisphere from that of the contralateral hemi-sphere. Then the volume of lesion cavity estimated in brain section of untreated mice was compared with lesion volume of brain sections of drug treated mice.

CCI-injured mice [3] = test: Rotarod test in CCI-injured mice; format: in vivo, mouse; details: 50 mg/kg/day oral
Experimental: The forehindlimb motor coordination and balance in animals was observed using the rotarod test as described in earlier studies. Briefly, each mouse was placed on the confined section of the rod and trial was initiated with a smooth increase in speed from 4 rpm to 40 rpm for 5 mins. […] The latency to fall was measured in seconds and used for the analysis. Following the CCI injury, each mouse performed the task three trials during the testing sessions and the average score on these three trials was used as the individual rotarod score. Each trial on the rod was terminated when the mice fell off the rod or held on to the rod by hanging and completed improper revolutions.

CCI-injured mice [4] = test: Grid runway in CCI-injured mice; format: in vivo, mouse; details: 7 day post-injury, 50 mg/kg/day oral
Text: The grid runway (65 cm length×8 cm breadth×1 cm intervals) made of parallel grid bars with interbar intervals of 1 cm apart and grid were kept above the surface on a table during the testing session. The soft padding was positioned under the grid run-way in the event for protection to avoid serious injury, if the animal falls from the grid. Each mouse was allowed to walk freely on grid and the time taken and number of steps to cross the runway was noted. Each successful foot placement on grid was recorded as a step. However, an error was considered whenever the paw slips through the grid or the paw misses a bar and extends downwards through the plane of bars. The locomotor behavior of animal on grid was evaluated by an observer blinded to the treatment on 7th and 21st day after CCI injury.

TBI mice = test: Barnes maze test in TBI mice; format: in vivo, mouse; details: NOR, Barnes maze and T maze, 21 days, 50 mg/kg/day oral
Experimental: The Barnes maze test was performed as described in our earlier studies. Briefly, the mice were initially trained for 2 consecutive days followed by examination on day 3. After each training session, maze and escape tunnel were thoroughly cleaned with a mild detergent to avoid instinctive odor avoidance due to mouse's odor from the familiar object. On day 3, a video camera (Basler Gen I Cam—Basler acA 1300-60) connected to a Noldus computer system was placed above the maze and was illuminated with high voltage light that generated enough light and heat to motivate animals to enter into the escape tunnel. The performance was monitored by the video tracking system (Noldus System). Cognitive behavior parameters were examined by measuring latency (duration before all four paws were on the floor of the escape box) and errors (incorrect response before all four paws were on the floor of the escape box).

[5] = test system: oligodendroglial progenitor cells (OPCs); test: Maturation of oligodendroglial progenitor cells (OPCs) into oligodendrocytes; format: cell-based, mouse; details: 100 μM, 18 h, serum-free, absence of FGF and PDGF
Experimental: FIGS. 15A-15L: Effect of sodium benzoate (NaB) on the maturation of oligodendroglial progenitor cells (OPCs) into oligodendrocytes. OPCs were isolated from P1˜P2 neonatal mouse pups, cultured in OPC media for 4 days in vitro (DIV) followed by treatment with 100 μM NaB and sodium formate (NaFO) in the absence of FGF and PDGF.
FIG. 15A) After 18 h of 100 μM NaB treatment in serum-free condition, cells were fixed and then dual immuno-stained with MBP (red) and OPC marker NG2 (green). Nuclei were stained with DAPI (blue). FIG. 15B) Similarly, OPCs were stained with PLP (red) and A2B5 (green) under similar treatment condition. Quantification of MBP+(FIG. 15C), NG2+(FIG. 15D), PLP+(FIG. 15E), and A2B5+(FIG. 15F) cells as a percentage of total cells (DAPI+). Average 5 fields per slide, total 3 slides. Results are mean+SEM. ***p<0.001. FIG. 15G) For protein expression, cells were treated with different doses of NaB for 18 h under serum free condition and then immunoblotted with PLP and MOG. FIG. 15H) Densitometric analyses of the bands relative to beta actin were done for PLP and MOG. ^ap<0.001 vs. control PLP; ^bp<0.005 vs. control MOG. FIG. 151) Cells were treated with NaB (100 μM) and NaFO (100 μM) for 4 h under serum-free condition followed by monitoring the mRNA expression of myelin-specific genes by real-time PCR (ap<0.01 vs. control PLP; ^bp<0.01 vs. control MOG; cp<0.01 vs. control MBP; dp<0.01 vs. control CNPase). OPCs were cultured on the top of randomly-oriented polycaprolactone nanofibers (Nanofiber Solutions; Cat #Z694576) for 7 days. After that, these cells were treated with 100 μM NaB (FIG. 15J) and NaFO (K) for additional 2 days followed by immunofluorescence analysis for MBP (red) (FIG. 15J, control; FIG. 15K, NaB; FIG. 15L, NaFO). […] Representative 3D constructed images of OPCs adhered to nanofibers were also shown at the right side.

[6] = test system: OPCs cultured on polycaprolactone nanofibers; test: Myelination of synthetic polycaprolactone nanofibers by OPCs; format: cell-based, mouse; details: 100 μM, 2 days after 7 days culture on nanofibers
Experimental: FIG. 15A) After 18 h of 100 μM NaB treatment in serum-free condition, cells were fixed and then dual immuno-stained with MBP (red) and OPC marker NG2 (green). Nuclei were stained with DAPI (blue). FIG. 15B) Similarly, OPCs were stained with PLP (red) and A2B5 (green) under similar treatment condition. Quantification of MBP+(FIG. 15C), NG2+(FIG. 15D), PLP+(FIG. 15E), and A2B5+(FIG. 15F) cells as a percentage of total cells (DAPI+). Average 5 fields per slide, total 3 slides. Results are mean+SEM. ***p<0.001. FIG. 15G) For protein expression, cells were treated with different doses of NaB for 18 h under serum free condition and then immunoblotted with PLP and MOG. FIG. 15H) Densitometric analyses of the bands relative to beta actin were done for PLP and MOG. ^ap<0.001 vs. control PLP; ^bp<0.005 vs. control MOG. FIG. 151) Cells were treated with NaB (100 μM) and NaFO (100 μM) for 4 h under serum-free condition followed by monitoring the mRNA expression of myelin-specific genes by real-time PCR (ap<0.01 vs. control PLP; ^bp<0.01 vs. control MOG; cp<0.01 vs. control MBP; dp<0.01 vs. control CNPase). OPCs were cultured on the top of randomly-oriented polycaprolactone nanofibers (Nanofiber Solutions; Cat #Z694576) for 7 days. […]

CCI-induced TBI mice [7] = test: Glial activation and iNOS in brain of CCI-induced TBI mice (immunofluorescence, Western blot); details: cortex and hippocampus
[8] = test system: mouse RAW 264.7 macrophages; test: NO production from stimulated RAW 264.7 macrophages (nitrite, Griess reagent); format: cell-based; details: cinnamein pretreatment 6 h, serum-free, 24 h; for LPS-induced production of NO (nitrite): 1 μg/ml LPS; for IFNγ-induced production of NO (nitrite): 25 U/ml IFNγ
Experimental: FIGS. 18A-18C. Cinnamein inhibits the induction of NO production from LPS- and IFNγ-stimulated mouse RAW 264.7 macrophages. FIG. 18A) Cells preincubated with different concentrations of cinnamein for 6 h were stimulated with 1 μg/ml LPS under serum-free condition. After 24 h of stimulation, the level of nitrite was measured in supernatants by Griess reagent. FIG. 18B) Cells preincubated with 400 μM cinnamein for different hours were stimulated with 1 μg/ml LPS under serum-free condition. After 24 h of stimulation, the level of nitrite was measured in supernatants. FIG. 18C) Cells preincubated with different concentrations of cinnamein for 6 h were stimulated with 25 U/ml IFNγ under serum-free condition. After 24 h of stimulation, the level of nitrite was measured in supernatants. Results are mean+SD of three independent experiments. *p<0.05; **p<0.01; ***p<0.001; NS, not significant.

primary mouse microglia = test: Proinflammatory cytokine production in primary mouse microglia (ELISA); format: cell-based; details: cinnamein 6 h, serum-free, 24 h
Experimental: FIGS. 19A-19B. Cinnamein inhibits LPS- and polyIC-induced production of TNFα in primary mouse microglia. Microglia isolated from 2d old mouse pups were incubated with different concentrations of cinnamein for 6 h followed by stimulation with either 1 μg/ml LPS (FIG. 19A) or 50 μg/ml polyIC (FIG. 19B) under serum-free condition. After 24 h of stimulation, the level of TNFα was measured in supernatants by ELISA. Results are mean+SD of three independent experiments. *p<0.05; **p<0.01; ***p<0.001; NS, not significant.
FIGS. 20A-20B. Cinnamein suppresses the production of IL-1j3 from LPS- and poly IC-stimulated primary mouse microglia. Cells preincubated with different concentrations of cinnamein for 6 h were stimulated with either 1 μg/ml LPS (FIG. 20A) or 50 μg/ml polyIC (FIG. 20B) under serum-free condition. After 24 h of stimulation, the level of […] was measured in supernatants by ELISA. Results are mean+SD of three independent experiments. ***p<0.001.
FIGS. 21A-21B. Cinnamein decreases LPS- and polyIC-induced production of IL-6 in primary mouse microglia. Microglia were incubated with different concentrations of cinnamein for 6 h followed by stimulation with either 1 μg/ml LPS (FIG. 21A) or 50 μg/ml polyIC (FIG. 21B) under serum-free condition. After 24 h of stimulation, the level of IL-6 was measured in supernatants by ELISA. Results are mean+SD of three independent experiments. ***p<0.001.

primary mouse astrocytes = test: Proinflammatory cytokine production in primary mouse astrocytes (ELISA); format: cell-based; details: cinnamein 6 h, 50 μg/ml poly IC, serum-free, 24 h
Experimental: FIGS. 22A-22B. Cinnamein inhibits the production of proinflammatory cytokines from polyIC-stimulated primary mouse astrocytes. Astrocytes preincubated with different concentrations of cinnamein for 6 h were stimulated with 50 μg/ml poly IC under serum-free condition. After 24 h of stimulation, levels of TNFα (FIG. 22A) and IL-6 (FIG. 22B) were measured in supernatants by ELISA. Results are mean+SD of three independent experiments. *p<0.05; **p<0.01; ***p<0.001.

[9] = day 7 post-injury, 50 mg/kg/day oral from 24 h after CCI
[10] = 1 μg/ml LPS, listed as Cinnamein
[11] = 50 μg/ml polyIC, listed as Cinnamein

O=C[O-].[Na+] [NaFO, sodium formate]
level of PLP in corpus callosum ([1]; 21 days of treatment): remained unable to restore
number of OPCs (A2B5 positive) in corpus callosum ([1]; 21 days of treatment): remained unable
remyelination ([1]; 21 d of treatment): not
total lesion volume / size of lesion cavity (CCI-induced TBI mice [2]; cresyl violet sections, 21 days post-injury, 50 mg/kg/day oral): not
structural-tissue integrity of damaged hippocampus (CCI-induced TBI mice [2]; oral treatment started 24 h after CCI): remained unable to exhibit such protection
latency to fall on rotarod (CCI-injured mice [3]; 7 day post-injury): not
latency to fall on rotarod (CCI-injured mice [3]; 21 day post-injury): not
gait movement on grid runway (steps, time taken, foot misplacement) (CCI-injured mice [4]): not
hippocampus-dependent behaviors / cognitive performance (TBI mice): remained unable to improve
differentiation/maturation of OPCs into oligodendrocytes (MBP+, PLP+, NG2+, A2B5+ cells) [5]: did not promote
myelination of synthetic fibers (MBP immunofluorescence) [6]: not
iNOS / iNOS-positive cells (CCI-induced TBI mice [7]; day 7, 50 mg/kg/day oral): not
GFAP-positive astrocytes (CCI-induced TBI mice [7]; [9]): remained unable to inhibit glial activation
Iba1-positive microglia (CCI-induced TBI mice [7]; [9]): remained unable to inhibit glial activation

O=C(/C=C/c1ccccc1)OCc1ccccc1 [cinnamein, Cinnamein]
LPS-induced production of NO (nitrite) [8]: significantly inhibited
LPS-induced production of NO (nitrite) ([8]; listed as Cinnamein): inhibits
IFNγ-induced production of NO (nitrite) [8]: significantly inhibited
IFNγ-induced production of NO (nitrite) ([8]; listed as Cinnamein): inhibits
LPS-induced production of IL-6 (primary mouse microglia; 1 μg/ml LPS): strongly inhibited
LPS-induced production of TNFα (primary mouse microglia; 1 μg/ml LPS): strongly inhibited
production of IL-1β (primary mouse microglia; 1 μg/ml LPS): strongly inhibited
LPS-induced production of IL-6 (primary mouse microglia; [10]): decreases
LPS-induced production of TNFα (primary mouse microglia; [10]): inhibits
production of IL-1β (primary mouse microglia; [10]): suppresses
polyIC-induced production of IL-6 (primary mouse microglia; 50 μg/ml polyIC): strongly inhibited
polyIC-induced production of TNFα (primary mouse microglia; 50 μg/ml polyIC): strongly inhibited
production of IL-1β (primary mouse microglia; 50 μg/ml polyIC): strongly inhibited
polyIC-induced production of IL-6 (primary mouse microglia; [11]): decreases
polyIC-induced production of TNFα (primary mouse microglia; [11]): inhibits
production of IL-1β (primary mouse microglia; [11]): suppresses
polyIC-induced production of IL-6 (primary mouse astrocytes): inhibited
polyIC-induced production of TNFα (primary mouse astrocytes): inhibited
polyIC-induced production of IL-6 (primary mouse astrocytes; listed as Cinnamein): inhibits
polyIC-induced production of TNFα (primary mouse astrocytes; listed as Cinnamein): inhibits
